Structures are written as SMILES.

Assay [1] deals with F21D (DNA, G4) GGGTTAGGGTTAGGGTTAGGG
The assay is described as follows: FRET melting. As to conditions: 5 mM K+, 95 mM Li+ (5 K buffer); 10 mM Li cacodylate pH 7.2; 0.2 µM F21D; sub-micromolar RHPS4; printed 'at least 15 °C'.

Assay [2] relates to Oligo A (DNA, G4) GGATGGGGTGGGGAGG
As to the kind of experiment: UV-Vis titration. The following applies: 5 mM K+, 95 mM Li+ (5 K buffer); 10 mM Li cacodylate pH 7.2; 20 µM RHPS4 titrated with annealed oligo; two-state direct fit.

Assay [3] relates to Oligo B (DNA, G4) GGGGGATGCGGGGG
As to the kind of experiment: CD melting (260 nm alone, 295 nm with RHPS4). As to conditions: 5 mM K+, 95 mM Li+ (5 K buffer); 5 µM oligo; 2 eq RHPS4; 10 mM Li cacodylate pH 7.2.

The test system is the same in assay [4]. As to the kind of experiment: UV-Vis titration. As to conditions: 5 mM K+, 95 mM Li+ (5 K buffer); 10 mM Li cacodylate pH 7.2; 20 µM RHPS4 titrated with annealed oligo; two-state direct fit.
Assay [5] deals with Oligo A (DNA, G4) GGATGGGGTGGGGAGG
As to the kind of experiment: CD melting (264 nm). The following applies: 5 mM K+, 95 mM Li+ (5 K buffer); 5 µM oligo; 2 eq RHPS4; 10 mM Li cacodylate pH 7.2.

In the case of `Cc1cc2c3c([n+](C)c4ccc(F)cc4c3c1)-c1cc(F)ccc1N2C`, in assay [1], the ΔTm stood at 15 °C. The Ka in assay [2] and in assay [4] was 0.5 ± 0.3 × 10^6 /M throughout. The results for the melting temperature increase in assay [3] and in assay [5] were 14.9 °C and 7.2 °C, respectively.

In general, ΔTm refers to the shift of the melting midpoint relative to a reference.

The values above are taken from publication PMC6447596 (2019).
